The source of these data is the NIST ThermoML archive (doi:10.1021/je0503554).

“And” between values parts separate entries of the source, which are not always exact repeats. Equal entries are not always repeated. ± gives the expanded uncertainty stated by the source.

The nature of the series: activity coefficient (dimensionless); of the first substance listed, at infinite dilution; xn = mol fraction of the nth substance listed. To be noted: Liquid, Chromatography, x1 = 0.

`C1=CCCC=C1` [1,3-cyclohexadiene] + CCCCCC[n+]1ccn(C)c1.O=S(=O)([N-]S(=O)(=O)C(F)(F)F)C(F)(F)F: the activity coefficient (312.05 K) was 1.8 ± 0.12; the activity coefficient (322.65 K) turned out to be 1.76 ± 0.12; the activity coefficient (333.15 K) worked out at 1.72 ± 0.12; the activity coefficient (343.65 K) stood at 1.67 ± 0.11; the activity coefficient (354.25 K) is 1.62 ± 0.11.

`C1COCCO1` [1,4-dioxane] + CCCCCC[n+]1ccn(C)c1.O=S(=O)([N-]S(=O)(=O)C(F)(F)F)C(F)(F)F: the activity coefficient runs as follows: (375.15 K) 0.04; (396.15 K) 0.047.

With `C=CCCCCCCCC` [1-decene] + CCCCCC[n+]1ccn(C)c1.O=S(=O)([N-]S(=O)(=O)C(F)(F)F)C(F)(F)F, the activity coefficient by setting is: (312.25 K) 16 ± 1.1; (322.85 K) 15.2 ± 1; (333.15 K) 14.1 ± 0.96; (333.25 K) 14.4 ± 0.98; (343.75 K) 13.5 and 13.3; (354.15 K) 13.1 ± 0.89. Where the note is “364.55 K”, the activity coefficient stood at 11.9 ± 0.81.

For `C=CCCCCCCCCCC` [1-dodecene] + CCCCCC[n+]1ccn(C)c1.O=S(=O)([N-]S(=O)(=O)C(F)(F)F)C(F)(F)F, the activity coefficient runs as follows: (333.15 K) 25.6 ± 1.8; (343.75 K) 23.1 and 22.7; (354.15 K) 21.1 and 20.5; (364.55 K) 19.3 ± 1.3; (364.65 K) 18.7 ± 1.3; (374.95 K) 16.9 ± 1.1.

`C=CCCCCC` [1-heptene] + CCCCCC[n+]1ccn(C)c1.O=S(=O)([N-]S(=O)(=O)C(F)(F)F)C(F)(F)F: the activity coefficient (301.95 K) came to 6.36 ± 0.43; the activity coefficient (312.45 K) was 6.18 ± 0.42; the activity coefficient (322.95 K) came out at 5.96 ± 0.41; the activity coefficient (333.45 K) was 5.69 ± 0.39; the activity coefficient (343.95 K) is 5.44 ± 0.37; the activity coefficient (354.35 K) was 5.26 ± 0.36.

Consider `C=CCCCCCCC` [1-nonene] + CCCCCC[n+]1ccn(C)c1.O=S(=O)([N-]S(=O)(=O)C(F)(F)F)C(F)(F)F, for which the activity coefficient reads like this: (312.25 K) 12.5 ± 0.85; (322.75 K) 11.8 ± 0.81; (333.15 K) 11.2 ± 0.76; (333.35 K) 11.1 ± 0.75; (343.75 K) 10.5 ± 0.71; (354.15 K) 9.99 ± 0.68. For the same compound, the activity coefficient (364.55 K) was 9.54 ± 0.65.

For `C=CCCC` [1-pentene] + CCCCCC[n+]1ccn(C)c1.O=S(=O)([N-]S(=O)(=O)C(F)(F)F)C(F)(F)F, the activity coefficient by setting is: (301.95 K) 3.63 ± 0.23; (312.45 K) 3.54 ± 0.23; (322.95 K) 3.43 ± 0.24; (333.45 K) 3.39 ± 0.25.

Regarding `C=CCCCCCCCCC` [1-undecene] + CCCCCC[n+]1ccn(C)c1.O=S(=O)([N-]S(=O)(=O)C(F)(F)F)C(F)(F)F, the activity coefficient reads like this: (322.65 K) 21 ± 1.4; (333.15 K) 19.2 ± 1.3; (343.75 K) 17.4 ± 1.2; (359.4 K) 15.4 ± 1.1; (369.85 K) 14.3 ± 0.97; (375.05 K) 14.1 ± 0.96.

With `CC(C)CO` [2-methyl-1-propanol] + CCCCCC[n+]1ccn(C)c1.O=S(=O)([N-]S(=O)(=O)C(F)(F)F)C(F)(F)F, the activity coefficient amounted to 2.46 ± 0.17 (301.65 K), 2.19 ± 0.15 (312.15 K), 1.9 ± 0.13 (322.85 K) and 1.68 ± 0.11 (333.35 K).

`CCC(C)(C)O` [2-methylbutan-2-ol] + CCCCCC[n+]1ccn(C)c1.O=S(=O)([N-]S(=O)(=O)C(F)(F)F)C(F)(F)F: the activity coefficient reads like this: (301.65 K) 1.7 ± 0.11; (312.25 K) 1.53 ± 0.1; (322.75 K) 1.4 ± 0.09; (333.25 K) 1.3 ± 0.08; (343.75 K) 1.22 ± 0.08; (354.05 K) 1.14 ± 0.07. The activity coefficient (364.55 K) is 1.06 ± 0.07.

For `CC(C)(C)O` [2-methylpropan-2-ol] + CCCCCC[n+]1ccn(C)c1.O=S(=O)([N-]S(=O)(=O)C(F)(F)F)C(F)(F)F, the activity coefficient runs as follows: (301.65 K) 1.7 ± 0.11; (312.15 K) 1.51 ± 0.1; (322.85 K) 1.34 ± 0.09; (333.35 K) 1.21 ± 0.08.

Take `CC(C)=O` [acetone] + CCCCCC[n+]1ccn(C)c1.O=S(=O)([N-]S(=O)(=O)C(F)(F)F)C(F)(F)F: the activity coefficient reads like this: (301.75 K) 0.352 ± 0.032; (302.25 K) 0.352 ± 0.032; (312.25 K) 0.357 ± 0.033; (322.85 K) 0.362 ± 0.033; (333.35 K) 0.366 ± 0.033; (343.85 K) 0.371 ± 0.033. Besides, the activity coefficient (354.25 K) was found to be 0.375 ± 0.033.

Consider `CC#N` [acetonitrile] + CCCCCC[n+]1ccn(C)c1.O=S(=O)([N-]S(=O)(=O)C(F)(F)F)C(F)(F)F, for which the activity coefficient amounted to 0.456 ± 0.036 (312.25 K); 0.446 ± 0.036 (322.85 K); 0.434 ± 0.035 (333.35 K); 0.426 ± 0.035 (343.85 K); 0.413 ± 0.034 (354.25 K).

For `c1ccccc1` [benzene] + CCCCCC[n+]1ccn(C)c1.O=S(=O)([N-]S(=O)(=O)C(F)(F)F)C(F)(F)F, the activity coefficient runs as follows: (301.65 K) 0.779 and 0.778; (306.95 K) 0.776 ± 0.051; (312.25 K) 0.776 ± 0.051; (322.75 K) 0.777 ± 0.051; (322.85 K) 0.773 ± 0.051; (333.25 K) 0.777 and 0.774. For the same compound, the activity coefficient (343.75 K) was found to be 0.769 ± 0.05.

As to `CCCCO` [butan-1-ol] + CCCCCC[n+]1ccn(C)c1.O=S(=O)([N-]S(=O)(=O)C(F)(F)F)C(F)(F)F, the activity coefficient runs as follows: (322.65 K) 2.06 ± 0.14; (333.15 K) 1.83 ± 0.12; (343.65 K) 1.67 ± 0.11; (354.15 K) 1.53 ± 0.1.

As for `CCC(C)O` (stereo unspecified) [butan-2-ol] + CCCCCC[n+]1ccn(C)c1.O=S(=O)([N-]S(=O)(=O)C(F)(F)F)C(F)(F)F, the activity coefficient by setting is: (301.65 K) 2.14 ± 0.15; (312.15 K) 1.9 ± 0.13; (322.85 K) 1.66 ± 0.11; (333.35 K) 1.47 ± 0.1.

As for `CCCC=O` [butanal] + CCCCCC[n+]1ccn(C)c1.O=S(=O)([N-]S(=O)(=O)C(F)(F)F)C(F)(F)F, the activity coefficient (301.75 K) turned out to be 0.578 ± 0.041, the activity coefficient (312.25 K) is 0.576 ± 0.041, the activity coefficient (322.85 K) turned out to be 0.574 ± 0.041 and the activity coefficient (333.35 K) was 0.572 ± 0.041.

For the compound `CCCCc1ccccc1` [butylbenzene] + CCCCCC[n+]1ccn(C)c1.O=S(=O)([N-]S(=O)(=O)C(F)(F)F)C(F)(F)F, the activity coefficient runs as follows: (354.25 K) 2.72 ± 0.19; (364.65 K) 2.69 ± 0.18; (375.15 K) 2.66 ± 0.18; (385.65 K) 2.62 ± 0.18.

`C1CCCCC1` [cyclohexane] + CCCCCC[n+]1ccn(C)c1.O=S(=O)([N-]S(=O)(=O)C(F)(F)F)C(F)(F)F: the activity coefficient runs as follows: (300.95 K) 5.65 ± 0.39; (312.25 K) 5.23 ± 0.36; (322.85 K) 4.9 ± 0.33; (333.25 K) 4.59 ± 0.31.

With `OC1CCCCC1` [cyclohexanol] + CCCCCC[n+]1ccn(C)c1.O=S(=O)([N-]S(=O)(=O)C(F)(F)F)C(F)(F)F, the activity coefficient turned out to be 1.87 ± 0.13 (354.05 K); 1.6 ± 0.11 (364.55 K); 1.43 ± 0.09 (374.95 K); 1.29 ± 0.08 (385.45 K); 1.2 ± 0.08 (395.95 K).

Consider `C1=CCCCC1` [cyclohexene] + CCCCCC[n+]1ccn(C)c1.O=S(=O)([N-]S(=O)(=O)C(F)(F)F)C(F)(F)F, for which the activity coefficient was 3.41 ± 0.23 (301.85 K); 3.24 ± 0.22 (312.25 K); 3.08 ± 0.21 (322.85 K); 2.94 ± 0.2 (333.25 K); 2.83 ± 0.19 (343.75 K).

For the compound `CCCCCCCCCC` [decane] + CCCCCC[n+]1ccn(C)c1.O=S(=O)([N-]S(=O)(=O)C(F)(F)F)C(F)(F)F, the activity coefficient was 28.5 ± 1.9 (307.05 K), 27.4 ± 1.9 (312.35 K), 25.6 ± 1.8 (322.85 K) and 22.9 ± 1.6 (333.35 K).

In the case of `CCCCCCCCCCCC` [dodecane] + CCCCCC[n+]1ccn(C)c1.O=S(=O)([N-]S(=O)(=O)C(F)(F)F)C(F)(F)F, the activity coefficient by setting is: (333.35 K) 39.6 ± 2.7; (343.75 K) 36.4 ± 2.5; (354.25 K) 34.2 ± 2.3; (364.75 K) 30.3 ± 2.1.

In the case of `CCO` [ethanol] + CCCCCC[n+]1ccn(C)c1.O=S(=O)([N-]S(=O)(=O)C(F)(F)F)C(F)(F)F, the activity coefficient by setting is: (301.95 K) 1.95 ± 0.13; (312.45 K) 1.71 ± 0.11; (323.05 K) 1.51 ± 0.1; (333.45 K) 1.35 ± 0.09; (343.95 K) 1.2 ± 0.08; (354.45 K) 1.08 ± 0.07.
